The source of these data is BindingDB's records for doi:10.1016/j.bioorg.2017.03.015 (Silesian University of Technology, 2017).

This test has as its target T1, Beta-1,4-galactosyltransferase 1 (Bos taurus, UniProt P08037).
T1 sequence (P08037 whole entry): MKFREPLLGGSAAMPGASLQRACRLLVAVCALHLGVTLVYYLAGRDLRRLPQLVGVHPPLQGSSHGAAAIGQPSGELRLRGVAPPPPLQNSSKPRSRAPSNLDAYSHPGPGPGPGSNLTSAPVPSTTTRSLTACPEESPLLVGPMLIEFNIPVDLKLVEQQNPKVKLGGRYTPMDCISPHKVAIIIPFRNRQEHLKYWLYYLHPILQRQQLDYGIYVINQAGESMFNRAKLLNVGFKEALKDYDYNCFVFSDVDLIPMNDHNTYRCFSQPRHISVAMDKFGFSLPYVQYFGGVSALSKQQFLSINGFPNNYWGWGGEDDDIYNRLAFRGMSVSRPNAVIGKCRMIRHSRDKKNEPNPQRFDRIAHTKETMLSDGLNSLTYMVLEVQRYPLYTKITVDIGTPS
Kind of test: β-1,4-Galactosyltransferase I Assay. The following applies: pH 5.4; 30 °C. As to the method:
β4GalT activity was assayed using UDP-Gal as glycosyl donor and (6-esculetinyl) β-D-glucopyranoside (esculine) as glycosyl acceptor. Assays were performed in a total volume of 200 μL. The reaction mixtures contained reagents in the following final concentrations: 50 mM Hepes buffer (pH 5.4), 10 mM MnCl2, 2.0 mg/mL BSA, 200 μM esculine, 40 μM UDP-Gal, 10 μL MeOH and potential inhibitors 1-6 at 0.8 mM concentration. The enzymatic reactions were initiated by the addition of 1 mU β4GalT and incubated at 30 °C for 60 min. Inactivation was quickly done by placing of the reaction solutions for 3 min in a thermo block set to 90 °C. Thesolutions were diluted with water (300 μL) and centrifuged for 20 min, filtered through M.E. Cellulose filter (0.2 μm × 13 mm) and the filtrate was injected into RP-HPLC system.

In the case of `O=c1ccn([C@@H]2O[C@H](Cn3cc(CO[C@@H]4OC(CO)[C@@H](O)C(O)C4O)nn3)C(O)C2O)c(=O)[nH]1` (stereo partly drawn) [5'-deoxy-5'-[4-(β-D-glucopyranosyloxymethyl)-1,2-3-triazol-1-yl]uridine (5)], 720 µM corresponded to half-maximal inhibition (IC50).

The term IC50 denotes the concentration that inhibits the measured activity by half.
